PubChem BioAssay AID504532 (Sanford-Burnham Center for Chemical Genomics, 2011)
Calls of active or inactive are those of the source.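 Rule for the calls: active = mean EC50 below 10 µM; inactive = the rest.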

biological target: Type-1 angiotensin II receptor (Homo sapiens) (UniProt P30556); assay: AT1 receptor agonist selectivity testing, SAR follow-up, selectivity assay for APJ receptor agonist project, cell-based, CHO-K1 AGTR1, beta-arrestin, luminescence, set 5 (AID 504532); conditions: CHO-K1 AGTR1 beta-arrestin PathHunter, 90 min
Sequence (P30556 whole entry, looked up): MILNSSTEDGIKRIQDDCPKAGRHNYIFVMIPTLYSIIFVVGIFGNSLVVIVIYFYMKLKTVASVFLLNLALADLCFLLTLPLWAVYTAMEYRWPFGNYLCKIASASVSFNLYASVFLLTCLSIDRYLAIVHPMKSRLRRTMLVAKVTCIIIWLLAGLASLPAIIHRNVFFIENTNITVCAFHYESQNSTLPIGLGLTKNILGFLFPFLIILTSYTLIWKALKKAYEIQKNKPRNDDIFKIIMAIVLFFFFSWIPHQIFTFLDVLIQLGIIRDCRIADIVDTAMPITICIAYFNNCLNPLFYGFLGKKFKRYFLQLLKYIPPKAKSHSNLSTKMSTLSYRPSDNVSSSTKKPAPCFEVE

EC50, inactive:
CC1=CC(=O)C(C(C)C)=C/C1=N\OS(=O)(=O)c1cn(C)cn1 > 79 µM
CC1=CC(=O)C(C2CCCCC2)=C/C1=N\OS(=O)(=O)c1cccc(Cl)c1 > 79 µM
Cc1cc(N=O)c(C(C)C)cc1O > 79 µM
CC1=CC(=O)C(C(C)C)=C/C1=N\OS(=O)(=O)c1c(Cl)cccc1Cl > 79 µM
CC1=CC(=O)C(C(C)(C)C)=C/C1=N\OS(=O)(=O)C1CCCCC1 > 79 µM
COc1cccc(S(=O)(=O)O/N=C2\C=C(C(C)(C)C)C(=O)C=C2C)c1 > 79 µM
CC1=CC(=O)C(C(C)C)=C/C1=N/OS(=O)(=O)c1cccc(C)c1 > 79 µM
N#Cc1ccc(S(=O)(=O)ON=C2C=CC(=O)C(c3ccccc3)=C2)cc1 > 79 µM
CC1=CC(=O)C(C2CCCCC2)=C/C1=N/OS(=O)(=O)c1cccc(C)c1 > 79 µM
CC1=CC(=O)C(C2CCCCC2)=C/C1=N/OS(=O)(=O)c1cccc(Br)c1 > 79 µM
CC1=CC(=O)C(C(C)C)=C/C1=N\OS(=O)(=O)c1ccccc1Cl > 79 µM
CC1=CC(=O)C(C(C)(C)C)=C/C1=N/OS(=O)(=O)c1cccc(Br)c1 > 79 µM
CC1=CC(=O)C(C(C)(C)C)=C/C1=N\OS(=O)(=O)c1cccc(Cl)c1 > 79 µM
COc1cccc(S(=O)(=O)O/N=C2\C=C(C3CCCCC3)C(=O)C=C2C)c1 > 79 µM
CC1=CC(=O)C(C(C)C)=C/C1=N\OS(=O)(=O)c1cccc(Cl)c1 > 79 µM
O=C1C=CC(=NOS(=O)(=O)c2ccccc2)C=C1c1ccccc1 > 79 µM
CC1=CC(=O)C(C2CCCCC2)=C/C1=N/OS(=O)(=O)c1cccc(C#N)c1 > 79 µM
CC1=CC(=O)C(C(C)(C)C)=C/C1=N\OS(=O)(=O)c1ccccc1Cl > 79 µM
CC1=CC(=O)C(C(C)(C)C)=C/C1=N/OS(=O)(=O)c1cccc(C)c1 > 79 µM
CC1=CC(=O)C(C(C)C)=C/C1=N/OS(=O)(=O)c1cccc(Br)c1 > 79 µM
CC1=CC(=O)C(C2CCCCC2)=C/C1=N\OS(=O)(=O)c1c(Cl)cccc1Cl > 79 µM
Cc1cc(O)c(C(C)(C)C)cc1N=O > 79 µM
CC1=CC(=O)C(C(C)(C)C)=C/C1=N/OS(=O)(=O)c1cccc(C#N)c1 > 79 µM
CC(C)C1=CC(=NOS(=O)(=O)c2ccccc2)C=CC1=O > 79 µM
COc1cccc(S(=O)(=O)O/N=C2\C=C(C(C)C)C(=O)C=C2C)c1 > 79 µM
CC1=CC(=O)C(C2CCCCC2)=C/C1=N\OS(=O)(=O)c1cn(C)cn1 > 79 µM
CC1=CC(=O)C(C(C)(C)C)=C/C1=N\OS(=O)(=O)c1cn(C)cn1 > 79 µM
CC1=CC(=O)C(C(C)C)=C/C1=N\OS(=O)(=O)C1CCCCC1 > 79 µM
CC1=CC(=O)C(C2CCCCC2)=C/C1=N\OS(=O)(=O)c1ccccc1Cl > 79 µM
CC1=CC(=O)C(C(C)C)=C/C1=N/OS(=O)(=O)c1cccc(C#N)c1 > 79 µM
CC1=CC(=O)C(C(C)(C)C)=C/C1=N\OS(=O)(=O)c1c(Cl)cccc1Cl > 79 µM
